Measured values taken from US8119563B2, “N-substituted azacycles” (FMC Corporation, priority 2003, dated 2012).

System: tobacco budworm (Heliothis virescens [Fabricius])
Assay: surface-treated diet test, insecticidal activity against tobacco budworm
Assay type: in vivo
Parameters: mortality: concentration or dose not given beside the values
Settings: 0.25 millimoles of candidate insecticide on the surface of the diet, second instar larvae, five-day exposure
Protocol: Candidate insecticides were evaluated for activity against the tobacco budworm (Heliothis virescens [Fabricius]) in a surface-treated diet test.
In this test one mL of molten (65-70° C.) wheat germ-based artificial diet was pipetted into each well of a four by six (24 well) multi-well plate (ID# 430345-15.5 mm dia.×17.6 mm deep; Corning Costar Corp., One Alewife Center, Cambridge, Mass. 02140). The diet was allowed to cool to ambient temperature before treatment with candidate insecticide.
For a determination of insecticidal activity, solutions of the candidate insecticides were prepared for testing using a Packard 204DT Multiprobe® Robotic System (Packard Instrument Company, 800 Research Parkway, Meriden, Conn. 06450), in which the robot first diluted a standard 50 millimolar DMSO solution of candidate insecticide with a 1:1 water/acetone solution (V/V) in a ratio of 1:7 stock solution to water/acetone. The robot subsequently pipetted 40 microliters of the so-prepared solution onto the surface of the diet in each of three wells in the 24 multi-well plate. The process was repeated with solutions of seven other candidate insecticides. Once treated, the contents of the multi-well plate were allowed to dry, leaving 0.25 millimoles of candidate insecticide on the surface of the diet, or a concentration of 0.25 millimolar. Appropriate untreated controls containing only DMSO on the diet surface were also included in this test.
For evaluations of the insecticidal activity of a candidate insecticide at varying rates of application, the test was established as described above using sub-multiples of the standard 50 millimolar DMSO solution of candidate insecticide. For example, the standard 50 millimolar solution was diluted by the robot with DMSO to give 5, 0.5, 0.05, 0.005, 0.0005 millimolar, or more dilute solutions of the candidate insecticide. In these evaluations there were six replicates of each rate of application placed on the surface of the diet in the 24 multi-well plate, for a total of four rates of application of candidate insecticide in each plate.
In each well of the test plate was placed one second instar tobacco budworm larvea, each weighing approximately five milligrams. After the larvae were placed in each well, the plate was sealed with clear polyfilm adhesive tape. The tape over each well was perforated to ensure an adequate air supply. The plates were then held in a growth chamber at 25° C. and 60% relative humidity for five days (light 14 hours/day).
After the five-day exposure period insecticidal activity for each rate of application of candidate insecticide was assessed as percent inhibition of insect weight relative to the weight of insects from untreated controls, and percent mortality when compared to the total number of insects infested.
The test compounds of formula I are identified by numbers that correspond to those in Table 1.

[1] = compared to total number of insects infested
[2] = inhibition of insect weight relative to untreated controls

| SMILES | Percent Mortality [1] [%] | Percent Growth Inhibition [2] [%] | mortality (Heliothis virescens, 120 h, compared to total number of insects infested, read-out: Percent Mortality) [%] | pest or weed control at 0.25 mmol/well (Heliothis virescens, 120 h, inhibition of insect weight relative to untreated controls, read-out: Percent Growth Inhibition) [%] |
| --- | --- | --- | --- | --- |
| OC1(C(c2ccc(OC(F)(F)F)cc2)c2ccc(C(F)(F)F)cc2)CCN(Cc2ccc(Oc3ccccn3)cc2)CC1 (stereo not drawn) [Compound 265] | 100 | 100 | – | – |
| COCCON=Cc1ccc(CN2CCC(O)(C(c3ccc(OC(F)(F)F)cc3)c3ccc(OC(F)(F)F)cc3)CC2)cc1 [Compound 266] | 100 | 100 | – | – |
| OC1(C(c2ccc(Cl)cc2)c2ccc(Cl)cc2)CCN(Cc2ccc(Oc3ccccn3)cc2)CC1 [Compound 267] | 100 | 100 | – | – |
| ON=Cc1ccc(CN2CCC(O)(C(c3ccc(C(F)(F)F)cc3)c3ccc(C(F)(F)F)cc3)CC2)cc1 [Compound 270] | 100 | 100 | – | – |
| Cc1cccnc1Oc1ccc(CN2CCC(O)(C(c3ccc(OC(F)(F)F)cc3)c3ccc(OC(F)(F)F)cc3)CC2)cc1 [Compound 271] | 100 | 100 | – | – |
| Cc1ccc(Oc2ccc(CN3CCC(O)(C(c4ccc(OC(F)(F)F)cc4)c4ccc(OC(F)(F)F)cc4)CC3)cc2)nc1 [Compound 272] | 100 | 100 | – | – |
| CCOC(OCC)c1ccc(CN2CCC(O)(C(c3ccc(OC(F)(F)F)cc3)c3ccc(OC(F)(F)F)cc3)CC2)cc1 [Compound 273] | 100 | 100 | – | – |
| COc1ccc(Oc2ccc(CN3CCC(O)(C(c4ccc(OC(F)(F)F)cc4)c4ccc(OC(F)(F)F)cc4)CC3)cc2)nn1 [Compound 274] | 100 | 100 | – | – |
| N#CCON=Cc1ccc(CN2CCC(O)(C(c3ccc(OC(F)(F)F)cc3)c3ccc(OC(F)(F)F)cc3)CC2)cc1 [Compound 275] | 100 | 100 | – | – |
| Cc1cccc(Oc2ccc(CN3CCC(O)(C(c4ccc(OC(F)(F)F)cc4)c4ccc(OC(F)(F)F)cc4)CC3)cc2)n1 [Compound 276] | 100 | 100 | – | – |
| CON=C(Cl)c1ccc(CN2CCC(O)(C(c3ccc(OC(F)(F)F)cc3)c3ccc(OC(F)(F)F)cc3)CC2)cc1 [Compound 277] | 100 | 100 | – | – |
| CCOC(=O)COc1ccc(CN2CCC(O)(C(c3ccc(OC(F)(F)F)cc3)c3ccc(OC(F)(F)F)cc3)CC2)cc1 [Compound 279] | 83 | 100 | – | – |
| CC1(C)COC(c2ccc(CN3CCC(O)(C(c4ccc(OC(F)(F)F)cc4)c4ccc(OC(F)(F)F)cc4)CC3)cc2)OC1 [Compound 280] | 100 | 100 | – | – |
| N#Cc1cccnc1Oc1ccc(CN2CCC(O)(C(c3ccc(OC(F)(F)F)cc3)c3ccc(OC(F)(F)F)cc3)CC2)cc1 [Compound 281] | 100 | 100 | – | – |
| N#Cc1ccc(Oc2ccc(CN3CCC(O)(C(c4ccc(OC(F)(F)F)cc4)c4ccc(OC(F)(F)F)cc4)CC3)cc2)nc1 [Compound 283] | 100 | 100 | – | – |
| CONC(=O)c1ccc(CN2CCC(O)(C(c3ccc(OC(F)(F)F)cc3)c3ccc(OC(F)(F)F)cc3)CC2)cc1 [Compound 285] | 100 | 100 | – | – |
| OC1(C(c2ccc(OC(F)(F)F)cc2)c2ccc(OC(F)(F)F)cc2)CCN(Cc2ccc(Oc3cccc(Cl)c3)cc2)CC1 [Compound 286] | 100 | 100 | – | – |
| OC1(C(c2ccc(OC(F)(F)F)cc2)c2ccc(OC(F)(F)F)cc2)CCN(Cc2ccc(Oc3ccc(Cl)cc3)cc2)CC1 [Compound 290] | 100 | 100 | – | – |
| CCOC(=O)COc1ccc(CN2CCC(O)(C(c3ccc(C(F)(F)F)cc3)c3ccc(C(F)(F)F)cc3)CC2)cc1 [Compound 291] | 17 | 100 | – | – |
| OC1(C(c2ccc(OC(F)(F)F)cc2)c2ccc(OC(F)(F)F)cc2)CCN(Cc2ccc(C3OCCCO3)cc2)CC1 [Compound 292] | 100 | 100 | – | – |

| SMILES | Percent Mortality [1] [%] | Percent Growth Inhibition [2] [%] | mortality (Heliothis virescens, 120 h, compared to total number of insects infested, read-out: Percent Mortality) [%] | pest or weed control at 0.25 mmol/well (Heliothis virescens, 120 h, inhibition of insect weight relative to untreated controls, read-out: Percent Growth Inhibition) [%] |
| --- | --- | --- | --- | --- |
| OC1(C(c2ccc(OC(F)(F)F)cc2)c2ccc(OC(F)(F)F)cc2)CCN(Cc2ccc(OCC=C(Cl)Cl)cc2)CC1 [Compound 293] | 100 | 100 | – | – |
| OC1(C(c2ccc(OC(F)(F)F)cc2)c2ccc(OC(F)(F)F)cc2)CCN(Cc2ccc(Oc3ccccc3Cl)cc2)CC1 [Compound 297] | 100 | 100 | – | – |
| O=C(NC1CC1)Oc1ccc(CN2CCC(O)(C(c3ccc(OC(F)(F)F)cc3)c3ccc(OC(F)(F)F)cc3)CC2)cc1 [Compound 298] | 100 | 100 | – | – |
| OC1(C(c2ccc(C(F)(F)F)cc2)c2ccc(C(F)(F)F)cc2)CCN(Cc2ccc(OCC3CC3)cc2)CC1 [Compound 299] | 100 | 100 | – | – |
| CCCNC(=O)Oc1ccc(CN2CCC(O)(C(c3ccc(OC(F)(F)F)cc3)c3ccc(OC(F)(F)F)cc3)CC2)cc1 [Compound 300] | 100 | 100 | – | – |
| OC1(C(c2ccc(OC(F)(F)F)cc2)c2ccc(OC(F)(F)F)cc2)CCN(Cc2ccc(C=NOCC(F)(F)F)cc2)CC1 [Compound 301] | 100 | 100 | – | – |
| Oc1ccc(CN2CCC(O)(C(c3ccc(C(F)(F)F)cc3)c3ccc(C(F)(F)F)cc3)CC2)cc1 [Compound 302] | 17 | 100 | – | – |
| CC(C)Oc1ccc(CN2CCC(O)(C(c3ccc(C(F)(F)F)cc3)c3ccc(C(F)(F)F)cc3)CC2)cc1 [Compound 303] | 100 | 100 | – | – |
| OC1(C(c2ccc(OC(F)(F)F)cc2)c2ccc(OC(F)(F)F)cc2)CCN(Cc2ccc(OCc3ccccc3)cc2)CC1 [Compound 304] | 100 | 100 | – | – |
| CC(C)=CCCC(C)=CCON=Cc1ccc(CN2CCC(O)(C(c3ccc(OC(F)(F)F)cc3)c3ccc(OC(F)(F)F)cc3)CC2)cc1 [Compound 305] | 0 | 31 | – | – |
| OC1(C(c2ccc(OC(F)(F)C(F)C(F)(F)F)cc2)c2ccc(OC(F)(F)C(F)C(F)(F)F)cc2)CCN(Cc2ccc(Oc3ncccn3)cc2)CC1 (stereo not drawn) [Compound 306] | 100 | 100 | – | – |
| OC1(C(c2ccc(C(F)(F)F)cc2)c2ccc(C(F)(F)F)cc2)CCN(Cc2ccc(Oc3ccc(Cl)nn3)cc2)CC1 [Compound 307] | 100 | 100 | – | – |
| COCCOc1ccc(CN2CCC(O)(C(c3ccc(OC(F)(F)F)cc3)c3ccc(OC(F)(F)F)cc3)CC2)cc1 [Compound 308, 4-{bis[4-(trifluoromethoxy)phenyl]methyl}-1-{[4-(2-methoxyethoxy)phenyl]methyl}piperidin-4-ol] | – | – | 100 | 100 |
| OC1(C(c2ccc(OC(F)(F)F)cc2)c2ccc(OC(F)(F)F)cc2)CCN(Cc2ccc(-c3ccccn3)cc2)CC1 [Compound 309] | 100 | 100 | – | – |
| CCCOC(=O)Nc1ccc(CN2CCC(O)(C(c3ccc(OC(F)(F)F)cc3)c3ccc(OC(F)(F)F)cc3)CC2)cc1 [Compound 310] | 100 | 100 | – | – |
| CC(C)(C)NC(=O)Oc1ccc(CN2CCC(O)(C(c3ccc(OC(F)(F)F)cc3)c3ccc(OC(F)(F)F)cc3)CC2)cc1 [Compound 311] | 100 | 100 | – | – |
| OC1(C(c2ccc(OC(F)(F)F)cc2)c2ccc(OC(F)(F)F)cc2)CCN(Cc2ccc(C=NOCCF)cc2)CC1 [Compound 312] | 100 | 100 | – | – |
| CCCOC(=O)Nc1ccc(CN2CCC(O)(C(c3ccc(C(F)(F)F)cc3)c3ccc(C(F)(F)F)cc3)CC2)cc1 [Compound 313] | 100 | 100 | – | – |
| OC1(C(c2ccc(OC(F)(F)F)cc2)c2ccc(OC(F)(F)F)cc2)CCN(Cc2ccc(OCC3CC3)cc2)CC1 [Compound 315] | 100 | 100 | – | – |
